This note sets out measurements from patent US7381744B1, “Method of treating osteoporosis comprising vacuolar-type (H+)-ATPase-inhibiting compounds” (The United States of America as represented by the …, priority 1999, dated 2008).

By pIC50 is commonly meant the IC50 on a negative log10 scale, so that one unit is a factor of ten. A high value points to a low IC50.

What all share (format): biochemical
Experiment [1] relates to vacuolar-type (H+)-ATPase derived from human kidney cells (hK). Description: vacuolar-type (H+)-ATPase inhibition assay, membrane vesicles (hK). The following applies: bafilomycin-sensitive activity; oligomycin 5 μg/ml and vanadate 1 mM present; 37°, 30 minutes. On the procedure: (§1) Inhibition of bafilomycin-sensitive vacuolar-type (H+)-ATPase activity was measured in partially purified membrane vesicle preparations from human osteoclastoma cells (hOc), human renal cortical cells (hK), and macrophage cells (J774). The vesicles were prepared by appropriate adaptations of methods described in Gagliardi et al., J. Med. Chem., 41, 1568-1573 (1998); and Gagliardi et al., J. Med. Chem., 41, 1883-1893 (1998).
(§2) Vacuolar-type (H+)-ATPase assays were performed in the presence of oligomycin (5 μg/ml) and vanadate (1 mM) as inhibitors of F- and P-ATPases, respectively. A […] method was used to quantitate the residual bafilomycin-sensitive vacuolar-type (H+)-ATPase activity (see Chan et al., Anal. Biochem., 157, 375-380 (1986)). The assay measures the release of inorganic phosphate from ATP at 37° during 30 minutes of incubation. The reaction is initiated by the addition of MgSO4 ([…]).

For experiment [2], the system named is mammalian vacuolar-type (H+)-ATPase (from chromaffin granule membranes). The experiment can be described thus: mammalian vacuolar-type (H+)-ATPase inhibition, side-by-side test. The conditions noted are these: mammalian versus fungal enzyme. The text has this: The inhibitory data were obtained using the same procedures and biological preparations described in Bowman et al., Proc. Natl. Acad. Sci. USA, 85, 7972-7976 (November 1988).

For experiment [3], the system named is vacuolar-type (H+)-ATPase derived from macrophage cells (J774). Description: vacuolar-type (H+)-ATPase inhibition assay, membrane vesicles (J774). The conditions noted are these: bafilomycin-sensitive activity; oligomycin 5 μg/ml and vanadate 1 mM present; 37°, 30 minutes. On the procedure:
as §1, §2

pIC50: −log10 of the molar value.

In the case of `CO/N=C/C=C\C(=O)N/C=C/CC1CC(=O)OC(C)/C=C/C(O)/C(C)=C\Cc2cccc(O)c2C(=O)O1` (stereo not drawn) [lobatamide A], the pIC50 in experiment [1] was 8.74; in experiment [3], 8.55. For the same compound, in experiment [2], the “selectivity for mammalian versus fungal vacuolar-type (H+)-ATPase” value is recorded as “highly selective”.
